The text below walks through data of patent publication US5368864A, “Formulation of oxypurinol and/or its alkali and alkaline earth salts” (Henning Berlin GmbH Chemie- und Pharmawerk, priority 1988, dated 1994).

The conditions of data set [1]: cited from earlier work.
For data set [2] the following is noted: associated with sparing solubility; cited from earlier work.
Data set [3] can be described thus: Solubility as a function of pH value and time as compared to crystalline active substance. The format is physicochemical. As to conditions: solids dispersion is test 3; for solubility at 1 h: 60 minutes. How it is done:
(§1) The forms according to the invention were tested for solubility and rate of dissolution, respectively, in comparison to crystalline oxypurinol sodium monohydrate finely powdered in a mortar.
Solubility according to example 1 (test 3) as a function of pH value and
as compared to crystalline active substance (values in mg/liter)

A short description of data set [4]: Dissolution test (USP XXI dissolution tester) of oxypurinol sodium monohydrate and formulations in 0.1 N hydrochloric acid, spectrophotometric at 245 nm. The format is physicochemical. As to conditions: for Dissolved amount of active substance (cumulated values): 0.1 N HCl, 37° C. How it is done:
The dispersion of solids containing oxypurinol was mixed with the adjuvants indicated, and pressed to give tablets having a content of 150 mg of active substance. Two tablets, corresponding to 300 mg of oxypurinol sodium monohydrate, were tested for liberation of active substance.
as §1
United States Pharmacopoeia (USP XXI)
0.1 N hydrochloric acid
Measurements were effected spectrophotometrically at 245 nm.

Data set [5] is described as follows: Solubility and pH of aqueous solutions (background statements). It is filed as physicochemical.

Turning to `O=c1[nH]c(=O)c2c[nH]nc2[nH]1` [Oxypurinol, 4,6-dihydroxypyrazolo[3,4-d]pyrimidine], the “solubility in water and digestive juice” value in data set [1] is reported as “sparingly soluble”. The absorbability result in data set [2] is reported as “insufficient absorbability”.
As to `O=c1[nH]c(=O)c2c[nH]nc2[nH]1` [oxypurinol sodium monohydrate, Oxypurinol sodium monohydrate], the solubility at 5 min turned out to be 43 µg/mL in data set [3] (pH = 1.5); 81 µg/mL in data set [3] (pH = 3.0); 85 µg/mL in data set [3] (pH = 4.5); 243 µg/mL in data set [3] (pH = 6.5); 43 µg/mL in data set [4] (0.1 n hcl, after 5 minutes). Besides, the solubility at 10 min in data set [3] (pH = 1.5) is 62 µg/mL; in data set [3] (pH = 3.0) it was 110 µg/mL; in data set [3] (pH = 4.5), 110 µg/mL; in data set [3] (pH = 6.5), 261 µg/mL. In addition, the solubility at 1 h is 222 µg/mL in data set [3] (pH = 3.0); 243 µg/mL in data set [3] (pH = 4.5); 290 µg/mL in data set [3] (pH = 6.5); 142 µg/mL in data set [4] (0.1 n hcl, after 60 minutes). Also, the solubility at 24 h in data set [4] (0.1 n hcl, after 24 hours, read-out: maximum solubility) is around 280 µg/mL. For the same molecule, in data set [4] (0.1 n hcl, after another 24 hours, read-out: solubility as a constant for the substance), the solubility at 48 h is around 260 µg/mL. In addition, the “Dissolved amount of active substance (cumulated values)” value was determined as 43 mg/L in data set [4] (5 min); 62 mg/L in data set [4] (10 min); 88 mg/L in data set [4] (20 min); 115 mg/L in data set [4] (30 min); 126 mg/L in data set [4] (45 min); 142 mg/L in data set [4] (60 min). For the same molecule, the “Dissolved amount of active substance (cumulated values)” value in data set [4] (180 min) is 207 mg/L; in data set [4] (24 hrs) it was 280 mg/L; in data set [4] (48 hrs), 263 mg/L. In data set [4] (measurement time of 5 minutes), the rate of dissolution entry was “about 43 mg/5 min”. Besides, the “pH value of aqueous solutions” value in data set [5] (aqueous solution) was found to be 9.5. The solubility in data set [5] (water, 25° C., read-out: concentration permitted in aqueous solutions) was around 15000 µg/mL.
